Test results published in PubChem BioAssay (NCI).
Several values for one entry are separate records, joined by “and”; a condition that tells them apart may be missing. Identical values can stand only once.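 Cells were grown in 96-well plates and exposed to each compound for 48 hours at five concentrations; endpoints were interpolated linearly between bracketing concentrations, or set to the highest concentration if not reached. GI50 is the concentration that inhibits growth by half. TGI marks complete inhibition of growth.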

Experiments:
Assay in all cases: NCI tumour cell line growth inhibition, 48 h
BT-549 breast = system: BT-549 breast
HCT-15 colon = system: HCT-15 colon
KM12 colon = system: KM12 colon
LOX IMVI melanoma = system: LOX IMVI melanoma
M14 melanoma = system: M14 melanoma
MALME-3M melanoma = system: MALME-3M melanoma
MDA-MB-231 breast = system: MDA-MB-231 breast
NCI-H522 lung = system: NCI-H522 lung
SF-539 CNS = system: SF-539 CNS
SW-620 colon = system: SW-620 colon

Compound	GI50 (BT-549 breast)	TGI (BT-549 breast)	GI50 (HCT-15 colon)	TGI (HCT-15 colon) [µM]	GI50 (KM12 colon)	TGI (KM12 colon)	GI50 (LOX IMVI melanoma)	TGI (LOX IMVI melanoma)	GI50 (M14 melanoma)	TGI (M14 melanoma)	GI50 (MALME-3M melanoma)	TGI (MALME-3M melanoma)	GI50 (MDA-MB-231 breast)	TGI (MDA-MB-231 breast) [µM]	GI50 (NCI-H522 lung)	TGI (NCI-H522 lung)	GI50 (SF-539 CNS)	TGI (SF-539 CNS)	GI50 (SW-620 colon)	TGI (SW-620 colon) [µM]
COC[C@@H](N=C1NC(=O)/C(=C/c2ccc3ncccc3c2)S1)c1ccccc1	7.85 µM	> 25 µM	7.01 µM	> 25	10.8 µM	> 25 µM	9.73 µM	> 25 µM	13 µM	> 25 µM	> 23.1 µM	> 25 µM	12.7 µM	> 25	7.7 µM	> 23.3 µM	7.36 µM	> 24 µM	8.91 µM	> 25
O=C(Cc1ccc(/C=C/C(=O)c2ncc[nH]2)cc1)Nc1ccc(F)cc1	2.73 µM	11.3 µM	1.15 µM	7.37	2.1 µM	7.91 µM	1.07 µM	4.72 µM	5.98 µM	17.6 µM	7.86 µM	22.1 µM	1.83 µM	10.3	3.38 µM	9.42 µM	0.845 µM	2.66 µM	1.43 µM	6.78
O=c1c2c(=NCCN3CCCC3)cc3c(=O)n(CCCN4CCOCC4)c(=O)c4c(-c5ccc(CN6CCCC6)cc5)cc(c(O)n1CCCN1CCOCC1)c2c4-3	0.116 µM	0.5 µM	0.0664 µM	1.11	0.0661 µM	0.841 µM	0.0369 µM	0.234 µM	0.136 µM	0.641 µM	0.105 µM	0.388 µM	0.0397 µM	0.384	0.0265 µM	0.135 µM	0.0617 µM	0.274 µM	0.0186 µM	0.342
Fc1cccc(COc2ccc(Nc3ncnc4sc(-c5cccs5)cc34)cc2Cl)c1	6.25 µM	15.6 µM	9.11 µM	> 25	4.07 µM	> 25 µM	> 14.6 µM	> 25 µM	7.66 µM	> 25 µM	3.52 µM	10.1 µM	5.73 µM	16.4	7.55 µM	> 22.4 µM	5.55 µM	15.3 µM	> 13.3 µM	> 25
CCN1C/C(=C\c2cc(OC)c(OC)cc2OC)C(=O)/C(=C/c2cc(OC)c(OC)cc2OC)C1	2.87 µM	8.72 µM	2.96 µM	11.3	1.57 µM	3.04 µM	2.25 µM	5.55 µM	2.3 µM	5.37 µM	1.94 µM	3.59 µM	3.66 µM	12	3.05 µM	12 µM	2.61 µM	7.33 µM	3.2 µM	13.3
OCCN1CCN(CCCN2c3ccccc3Sc3ccc(Cl)cc32)CC1	4.49 µM	16.6 µM	2.39 µM	6.13	1.91 µM	3.69 µM	1.59 µM	3.09 µM	1.88 µM	3.6 µM	1.79 µM	3.59 µM	1.99 µM	4.78	1.5 µM	3.13 µM	1.82 µM	3.94 µM	1.77 µM	3.52
CCN(CCCN(C)C)Cc1cc(I)cc(C)c1O	12.7 µM	27.9 µM	21.5 µM	49.4	20 µM	44.7 µM	18.3 µM	34.6 µM	16.6 µM	31 µM	19.8 µM	36.8 µM	26.8 µM	91	18.7 µM	36.4 µM	14.8 µM	29 µM	17.1 µM	31.9
CN(c1ncccc1CNc1nc(Nc2ccc3c(c2)CC(=O)N3)ncc1C(F)(F)F)S(C)(=O)=O	2.21 µM and 2.53 µM	7 µM and 9.25 µM	5.14 µM and 4.9 µM	> 80.5	0.367 µM and 0.425 µM	4.52 µM and 7.35 µM	1.31 µM and 1.68 µM	17.4 µM and 9.4 µM	1.87 µM and 2.91 µM	5.49 µM and > 10 µM	2.98 µM and 2.89 µM	10.2 µM and > 10 µM	2.01 µM and 2.33 µM	> 100	1.81 µM and 2.24 µM	5.41 µM and 7.71 µM	1.96 µM and 2.35 µM	5.18 µM and 6.93 µM	1.56 µM and 2.89 µM	> 32.7
O=c1[nH]c2ccccc2c2ccccc12	> 100 µM	> 100 µM	> 100 µM	> 100	> 100 µM	> 100 µM	> 100 µM	> 100 µM	> 100 µM	> 100 µM	> 100 µM	> 100 µM	> 100 µM	> 100	> 100 µM	> 100 µM	> 100 µM	> 100 µM	> 100 µM	> 100
COc1ccc2c(c1OC)C[C@@H]1c3c(cc4c(c3-2)OCO4)CCN1C		> 100 µM		> 100		> 100 µM		29.1 µM		84.8 µM		> 100 µM		> 100		62.9 µM		50 µM		> 100
CC(C)c1[nH]nc(C(N)=O)c1N=NN(C)C		> 100 µM		> 100		> 100 µM		> 100 µM		> 100 µM		> 100 µM		> 100		67.8 µM		> 100 µM		> 100
